In US20180200257A1, “METHODS FOR THE TREATMENT OF INFLAMMATORY DISORDERS” (Galapagos NV, priority 2015, published 2018):

Tested on: subjects with moderately to severely active RA who have an inadequate response to methotrexate (MTX)
Assay: Study 1 (add-on to MTX) - ACR responses (ACR20/50/70)
Assay type: in vivo, human
Excerpt: The terms “ACR20”, “ACR50” and “ACR70” as used herein are scores which indicate how much a patient's rheumatoid arthritis has improved according to criteria set out by the American College of Rheumatology (ACR). The ACR score represents a percentage. An ACR20 score means that a person's RA has improved by 20%, an ACR50 score means it has improved by 50%, and an ACR70 score means it has improved by 70%. Specifically, to qualify for an ACR20 score, a person with RA must have at least 20% fewer tender joints and at least 20% fewer swollen joints. In addition the patient must show a 20% improvement in at least three of the following five areas: the person's overall (global) assessment of his or her own RA, the physician's global assessment of the person's RA, the person's assessment of his or her own pain, the person's assessment of his or her own physical functioning, and the results of an erythrocyte sedimentation rate or C-reactive protein (CRP) blood test (both of which test for inflammation). ACR50 and ACR70 scores use the same criteria but require 50% and 70% improvement, respectively, (Felson et al., 1993). In the data presented herein the CRP blood test is used.
Double-blind, placebo-controlled add on study in subjects with moderately to severely active RA who have an inadequate response to methotrexate (MTX) (oral or parenteral).
595 subjects randomized to one of 6 dose regimens of Compound 1 (dosed as [Compound 1:HCl:3H2O]) (3 dose levels administered either once or twice daily) or placebo on top of each subject's stable dose of MTX.
Compound 1 (dosed as [Compound 1:HCl:3H2O]) is dosed for twelve weeks once daily (q.d.) (50 mg, 100 mg or 200 mg) or twice daily (b.i.d.) (25 mg, 50 mg or 100 mg); or placebo.
At Week 12, the subjects on placebo who have not achieved 20% improvement in swollen joint count (SJC66) and tender joint count (TJC68) are re-randomized automatically to receive Compound 1 (dosed as a [Compound 1:HCl:3H2O]) either at 100 mg q.d. or 50 mg b.i.d. doses in a blinded fashion; subjects on 50 mg q.d. who have not achieved 20% improvement in SJC66 and TJC68 will be assigned to 100 mg q.d. and subjects on 25 mg b.i.d. that have not achieved a 20% improvement in SJC66 and TJC68 will be assigned to 50 mg b.i.d. Subjects who switch treatment at week 12 are handled as if they discontinued at week 12 for the purpose of statistical analysis, whereas subjects in the other groups will maintain their randomized treatment until Week 24.
The American College of Rheumatology (ACR) composite score, which evaluates clinical improvement relative to an initial assessment, is a commonly accepted efficacy end point for clinical trials in patients with rheumatoid arthritis. The ACR score correspond to a percentage improvement in pre-set parameters, and therefore measures the evolution of the disease in a patient. For example, ACR20 denotes at least 20% improvement in tender and swollen joint counts and in three of the following end points: global assessment by the patient, global assessment by the doctor, C reactive protein (CRP), patient's pain Visual Analogue Scale and Health Assessment Questionnaire Score. The number of swollen joints, ESR and CRP correlate with radiographic progression of joint damage, whereas tender joint counts, as well as global assessments by doctors and patients, and patients' reports of pain, are sensitive to change in clinical outcomes. Physical function, as assessed by the Health Assessment Questionnaire Score, is a potent predictor of the risk of disability in rheumatoid arthritis (Felson and American College of Rheumatology Committee to Reevaluate Improvement Criteria, 2007; Felson et al., 1993).
In particular, the list of parameters used to assess ACR score can be found in the Table XCVI below and the results of the ACR responses at week 12 via either NRI or LOCF are shown in the tables below. The Hommel-corrected p-value for the pairwise comparisons of each group with placebo is shown. […]

[1] = 2 × 25 mg b.i.d., week 2, 12 weeks results
[2] = 2 × 25 mg b.i.d., week 2, 24 weeks results
[3] = 2 × 25 mg b.i.d., week 4, 12 weeks results
[4] = 2 × 25 mg b.i.d., week 4, 24 weeks results
[5] = 2 × 25 mg b.i.d., week 8, 12 weeks results
[6] = 2 × 25 mg b.i.d., week 8, 24 weeks results
[7] = 2 × 25 mg b.i.d., week 12, 12 weeks results
[8] = 2 × 25 mg b.i.d., week 12, 24 weeks results
[9] = 2 × 25 mg b.i.d., week 16, 24 weeks results

O=C(Nc1nc2cccc(-c3ccc(CN4CCS(=O)(=O)CC4)cc3)n2n1)C1CC1 [Compound 1, cyclopropanecarboxylic acid {5-[4-(1,1-dioxo-thiomorpholin-4-ylmethyl)-phenyl]-[1,2,4]triazolo[1,5-a]pyridin-2-yl}-amide]
ACR70 (NRI) (200 mg q.d., week 8, 12 weeks results): 18.6%
ACR20 (LOCF) [1]: 27.9%
ACR20 (NRI) [1]: 29.1%
ACR50 (LOCF) [1]: 7.0%
ACR50 (NRI) [1]: 7.0%
ACR70 (LOCF) [1]: 2.3%
ACR70 (NRI) [1]: 2.3%
ACR20 (LOCF) [2]: 29.1%
ACR20 (NRI) [2]: 29.1%
ACR50 (LOCF) [2]: 7.0%
ACR50 (NRI) [2]: 7.0%
ACR70 (LOCF) [2]: 2.3%
ACR70 (NRI) [2]: 2.3%
ACR20 (LOCF) [3]: 44.2%
ACR20 (NRI) [3]: 45.3%
ACR50 (LOCF) [3]: 16.3%
ACR50 (NRI) [3]: 15.1%
ACR70 (LOCF) [3]: 5.8%
ACR70 (NRI) [3]: 5.8%
ACR20 (LOCF) [4]: 46.5%
ACR20 (NRI) [4]: 45.3%
ACR50 (LOCF) [4]: 16.3%
ACR50 (NRI) [4]: 15.1%
ACR70 (LOCF) [4]: 5.8%
ACR70 (NRI) [4]: 5.8%
ACR20 (LOCF) [5]: 58.1%
ACR20 (NRI) [5]: 58.1%
ACR50 (LOCF) [5]: 25.6%
ACR50 (NRI) [5]: 25.6%
ACR70 (LOCF) [5]: 8.1%
ACR70 (NRI) [5]: 9.3%
ACR20 (LOCF) [6]: 59.3%
ACR20 (NRI) [6]: 58.1%
ACR50 (LOCF) [6]: 25.6%
ACR50 (NRI) [6]: 25.6%
ACR70 (LOCF) [6]: 9.3%
ACR70 (NRI) [6]: 9.3%
ACR20 (LOCF) [7]: 58.1%
ACR20 (NRI) [7]: 57.0%
ACR50 (LOCF) [7]: 29.1%
ACR50 (NRI) [7]: 27.9%
ACR70 (LOCF) [7]: 14.0%
ACR70 (NRI) [7]: 14.0%
ACR20 (LOCF) [8]: 59.3%
ACR20 (NRI) [8]: 57.0%
ACR50 (LOCF) [8]: 29.1%
ACR50 (NRI) [8]: 27.9%
ACR70 (LOCF) [8]: 14.0%
ACR70 (NRI) [8]: 14.0%
ACR20 (LOCF) [9]: 55.8%
ACR20 (NRI) [9]: 52.3%
ACR50 (LOCF) [9]: 31.4%
ACR70 (LOCF) [9]: 10.5%
ACR20 (LOCF) (2 × 25 mg b.i.d., week 20, 24 weeks results): 58.1%
